Legend:
β2AR [1] = molecular target: T1, β2AR (Homo sapiens, UniProt P07550); assay: 35S-GTPγS binding to heterotrimeric Gs (SPA), β2AR in HDL; conditions: epinephrine (10 µM) stimulation; cmpd-6 or A9 20 µM, Nb6B9 1 µM, ICI-118551 10 µM
Method: After incubations, the β2AR-Gs complexes were captured on YSi beads.

β2AR [2] = molecular target: T1, β2AR; assay: 125I-CYP competition radioligand binding at β2AR in HDL particles (nanodiscs)

T1 sequence (P07550 whole entry): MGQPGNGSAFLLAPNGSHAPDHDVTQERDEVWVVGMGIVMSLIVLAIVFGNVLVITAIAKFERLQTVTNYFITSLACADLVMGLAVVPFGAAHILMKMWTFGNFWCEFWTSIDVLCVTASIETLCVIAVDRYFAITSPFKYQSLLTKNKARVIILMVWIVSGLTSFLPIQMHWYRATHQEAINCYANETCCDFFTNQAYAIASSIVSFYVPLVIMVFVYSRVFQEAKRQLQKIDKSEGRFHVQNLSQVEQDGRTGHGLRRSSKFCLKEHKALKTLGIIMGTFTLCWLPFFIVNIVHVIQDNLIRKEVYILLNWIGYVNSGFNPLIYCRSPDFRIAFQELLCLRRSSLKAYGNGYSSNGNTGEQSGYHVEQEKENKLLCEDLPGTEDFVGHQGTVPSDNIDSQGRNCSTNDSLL

Kd (β2AR [2]; LogKT, dissociation constant of PAM, carvedilol-bound β2AR): 2.95 µM
PAM activity with agonists including epinephrine (affinity shift) (β2AR [2]; analog 20 µM, Fig. 5A(i), 5C): absolutely no PAM activity
Kd (β2AR [2]; binding affinity of modulator for the receptor in the presence of carvedilol, from shifts of carvedilol LogIC50 versus modulator dose): ~2.9 µM
SMILES: CC(C)N(C)S(=O)(=O)c1ccc(Sc2ccc(C(N)=O)cc2)c(C(=O)N[C@@H](CC(N)=O)Cc2ccc(C(C)(C)C)cc2)c1 [A9]
35S-GTPγS binding to Gs / activation of Gs (β2AR [1]): markedly blocks the agonist-stimulated activation of Gs
cooperativity with carvedilol (affinity shift) (β2AR [2]; analog 20 µM, Fig. 5A(ii)): retains its positive cooperativity with carvedilol
